Experimental findings from ChEMBL document CHEMBL1130810, “Potent, selective benzenesulfonamide agonists of the human beta 3 adrenergic receptor” (Bioorg Med Chem Lett, 1998) are described below.

In test [1] the target is T1, Beta-1 adrenergic receptor (Homo sapiens, UniProt P08588). Briefly: Tested for binding affinity against cloned human beta-1 adrenergic receptor from CHO cells using [125I]iodocyanopindolol as the radioligand. It counts as cell-based.
The target in test [2] is T2, Beta-2 adrenergic receptor (Homo sapiens, UniProt P07550). Briefly: biochemical.
Target sequence in this assay (P07550 whole entry): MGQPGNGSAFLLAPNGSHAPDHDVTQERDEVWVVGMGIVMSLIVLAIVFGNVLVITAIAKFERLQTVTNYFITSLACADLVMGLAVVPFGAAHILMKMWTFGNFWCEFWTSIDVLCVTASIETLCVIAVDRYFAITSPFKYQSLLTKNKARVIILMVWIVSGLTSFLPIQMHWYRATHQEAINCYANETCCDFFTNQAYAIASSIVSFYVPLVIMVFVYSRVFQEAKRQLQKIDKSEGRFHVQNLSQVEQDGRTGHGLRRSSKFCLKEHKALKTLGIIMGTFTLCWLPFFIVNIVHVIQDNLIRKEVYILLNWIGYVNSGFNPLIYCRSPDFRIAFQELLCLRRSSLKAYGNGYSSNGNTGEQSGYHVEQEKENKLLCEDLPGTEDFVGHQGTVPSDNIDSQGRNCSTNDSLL
Description: Binding affinity against cloned human beta-2 adrenergic receptor from CHO cells using [125I]iodocyanopindolol as the radioligand
Test [3] concerns the target Beta-3 adrenergic receptor (Homo sapiens, UniProt P13945). Briefly: Agonist activity against cloned human beta-3 adrenergic receptor. Type of test: functional.
The target of test [4] is T2, Beta-2 adrenergic receptor. The test can be described thus: Compound was tested for agonist activity against cloned human beta-2 adrenergic receptor. Type of test: functional.
Target sequence in this assay (P07550 whole entry): as above
Test [5] has as its target T1, Beta-1 adrenergic receptor. The test can be described thus: biochemical.
Test [6] concerns the target T1, Beta-1 adrenergic receptor. Briefly: (§1) Compound was tested for agonist activity against cloned human beta-1 adrenergic receptor. Type of test: functional.
Test [7] addresses T2, Beta-2 adrenergic receptor. Briefly: Agonist activity against cloned human beta-2 adrenergic receptor as percent activation of adenyl cyclase activity at a concentration of 1000 nM. It counts as functional.
Target sequence in this assay (P07550 whole entry, looked up): as the sequence (P07550 whole entry) above
The target of test [8] is T1, Beta-1 adrenergic receptor. The test is described as §1.
Test [9] deals with T2, Beta-2 adrenergic receptor. The test can be described thus: Compound was tested for agonist activity against cloned human beta-2 adrenergic receptor at a concentration of 1000 nM. It counts as functional.
Target sequence in this assay (P07550 whole entry, looked up): as the sequence (P07550 whole entry) above
Test [10] concerns the target T1, Beta-1 adrenergic receptor. The test can be described thus: Compound was tested for binding affinity against cloned human beta-1 adrenergic receptor from CHO cells using [125I]-iodocyanopindolol as radioligand. Type of test: cell-based.

T1 sequence (P08588 whole entry): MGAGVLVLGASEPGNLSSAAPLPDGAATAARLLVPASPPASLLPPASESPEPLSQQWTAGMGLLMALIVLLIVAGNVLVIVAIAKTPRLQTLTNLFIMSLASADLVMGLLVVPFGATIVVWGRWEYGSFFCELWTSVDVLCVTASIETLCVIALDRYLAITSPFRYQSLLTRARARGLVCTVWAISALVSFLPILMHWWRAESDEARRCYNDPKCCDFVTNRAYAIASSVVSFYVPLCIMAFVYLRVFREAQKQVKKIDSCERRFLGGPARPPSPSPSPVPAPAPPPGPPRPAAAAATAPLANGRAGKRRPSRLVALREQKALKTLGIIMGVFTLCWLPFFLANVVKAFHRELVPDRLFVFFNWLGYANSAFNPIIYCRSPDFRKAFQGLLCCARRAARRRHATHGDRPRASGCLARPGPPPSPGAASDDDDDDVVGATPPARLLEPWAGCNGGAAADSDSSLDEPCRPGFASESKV
Chain of Beta-3 adrenergic receptor (P13945 whole entry): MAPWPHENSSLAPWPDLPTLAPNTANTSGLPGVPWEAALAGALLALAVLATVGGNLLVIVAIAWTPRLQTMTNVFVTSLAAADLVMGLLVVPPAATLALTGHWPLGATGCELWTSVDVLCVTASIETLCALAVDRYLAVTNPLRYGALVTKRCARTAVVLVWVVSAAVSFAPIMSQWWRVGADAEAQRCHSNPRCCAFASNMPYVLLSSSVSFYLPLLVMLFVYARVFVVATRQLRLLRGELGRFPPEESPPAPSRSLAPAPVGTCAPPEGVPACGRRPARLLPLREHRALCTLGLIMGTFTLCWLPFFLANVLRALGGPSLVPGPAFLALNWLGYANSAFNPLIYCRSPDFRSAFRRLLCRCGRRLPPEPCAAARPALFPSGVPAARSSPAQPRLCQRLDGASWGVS

For orientation: IC50 means the point on the concentration scale where inhibition reaches its midpoint. High values mean a need for much substance, low ones inhibition by little substance. Broadly, the EC50 is the concentration at which the effect is half-maximal. A lower EC50 goes with an effect from little substance. With `COc1ccc(S(=O)(=O)Nc2ccc(CCNC[C@H](O)COc3ccc(O)cc3)cc2)cc1`, the IC50 in test [1] was found to be 140 nM; in [2], 190 nM. In test [3], this compound came in with an EC50 of 4.3 nM.

As to `COc1ccc(CC[C@@H](C)NC[C@H](O)COc2ccc(O)cc2)cc1`, the results for the EC50 in test [4] and in test [3] were 5 nM and 600 nM, respectively.

For `O=S(=O)(Cc1ccccc1)Nc1ccc(CCNC[C@H](O)COc2ccc(O)cc2)cc1`, the IC50 worked out at 60 nM in [5] and 21 nM in test [2]. In [3], this compound registered an EC50 of 39 nM.

Turning to `O=C(Nc1ccc(CCNC[C@H](O)COc2ccc(O)cc2)cc1)c1ccccc1`, the IC50 came out at 6.7 nM in test [5] and 230 nM in [2]. For the same compound, the response in test [3] was half-maximal at 62 nM (EC50).

With `COc1ccc(CC[C@H](C)NC[C@@H](O)COc2ccc(O)cc2)cc1`, the EC50 in test [3] stood at 2000 nM. This lies in the single-digit micromolar range.

Regarding `O=S(=O)(Nc1ccc(CCNC[C@H](O)COc2ccc(O)cc2)cc1)c1ccc2ccccc2c1`, the IC50 is 9000 nM in test [1] and 630 nM in test [2]. The midpoint of the response in [3], the EC50, lay at 5.4 nM.

In the case of `Nc1ccc(CCNC[C@H](O)COc2ccc(O)cc2)cc1`, the concentration for half-maximal inhibition (IC50) in test [5] was found to be 1000 nM; in test [2], 500 nM. For the same compound, it took 440 nM to reach a half-maximal effect in test [3] (EC50).

The compound `COc1ccc(C[C@H](C)NC[C@H](O)COc2ccc(O)cc2)cc1` yielded a 50% effective concentration (EC50) in test [3] of 1000 nM.

`C[C@@H](CCc1ccc(O)cc1)NC[C@H](O)COc1ccc(O)cc1`: the IC50 stood at 15 nM in test [5] and 10 nM in test [2]. Also, the EC50 in [3] stood at 12 nM.

In the case of `O=S(=O)(CCc1ccccc1)Nc1ccc(CCNC[C@H](O)COc2ccc(O)cc2)cc1`, the IC50 was 110 nM in [5] and 120 nM in test [2]. Also, a half-maximal response in test [3] (EC50) required 5.9 nM.

Take `Oc1ccc(CCNC[C@H](O)COc2ccc(O)cc2)cc1`: the IC50 is 900 nM in [5] and 150 nM in test [2]. This compound yielded an EC50 in [3] of 30 nM.

Turning to `O=S(=O)(Nc1ccc(CCNC[C@H](O)COc2ccc(O)cc2)cc1)c1ccc(Br)cc1`, the IC50 stood at 510 nM in [5] and 180 nM in test [2]. In addition, the EC50 in test [6] amounted to 340 nM; in test [3], 0.77 nM.

On to `CC(=O)Nc1ccc(CCNC[C@H](O)COc2ccc(O)cc2)cc1`, for which the 50% inhibitory concentration (IC50) in test [5] worked out at 25 nM; in test [2], 11 nM. Moreover, in [3], the EC50 is 27 nM.

On to `O=S(=O)(Nc1ccc(CCNC[C@H](O)COc2ccc(O)cc2)cc1)c1ccccc1Cl`, for which the Activity in test [7] amounted to 2%. The values for the IC50 in test [5] and in [2] were 610 nM and 100 nM, respectively. This compound also gave an EC50 in test [3] of 54 nM.

In the case of `O=S(=O)(Nc1ccc(CCNC[C@H](O)COc2ccc(O)cc2)cc1)c1cnc2ccccc2c1`, in test [8], the EC50 amounted to 300 nM. In addition, the values for the IC50 in [1] and in test [2] were 500 nM and 240 nM, respectively.

With `O=S(=O)(CCCc1ccccc1)Nc1ccc(CCNC[C@H](O)COc2ccc(O)cc2)cc1`, the IC50 stood at 1000 nM in test [5] and 130 nM in test [2]. The compound also displayed a 50% effective concentration (EC50) in [3] of 92 nM.

For the compound `O=S(=O)(Nc1ccc(CCNC[C@H](O)COc2ccc(O)cc2)cc1)c1ccc(Cl)c(Cl)c1`, the half-maximal inhibitory concentration (IC50) in test [5] was more than 10000 nM; in [2] it was 3000 nM. In addition, in test [3], the EC50 was found to be 58 nM.

For the compound `O=S(=O)(Nc1ccc(CCNC[C@H](O)COc2ccc(O)cc2)cc1)c1cccc(Cl)c1`, the IC50 in test [1] turned out to be 1000 nM; in test [2], 370 nM. In test [3], this compound displayed a concentration for a half-maximal effect (EC50) of 15 nM.

Consider `Cc1ccc(S(=O)(=O)Nc2ccc(CCNC[C@H](O)COc3ccc(O)cc3)cc2)cc1`, for which the IC50 amounted to 150 nM in test [1] and 170 nM in test [2]. Also, the midpoint of the response in test [3], the EC50, lay at 2.6 nM.

In the case of `O=S(=O)(Nc1ccc(CCNC[C@H](O)COc2ccc(O)cc2)cc1)c1ccc(Cl)cc1`, the values for the EC50 in test [6] and in [3] were 450 nM and 4.8 nM, respectively. Besides, the IC50 in test [1] was determined as 1000 nM; in test [2] it was 280 nM.

Regarding `CS(=O)(=O)Nc1ccc(CCNC[C@H](O)COc2ccc(O)cc2)cc1`, the figures for the IC50 in [5] and in [2] were 830 nM and 220 nM, respectively. In [3], this compound showed an EC50 of 110 nM.

As for `CCCCCS(=O)(=O)Nc1ccc(CCNC[C@H](O)COc2ccc(O)cc2)cc1`, the IC50 in test [5] was determined as 1000 nM; in test [2] it was 250 nM. Also, the EC50 in test [3] was determined as 4000 nM.

Consider `COc1ccc(CC[C@@H](C)NC[C@@H](O)COc2ccc(O)cc2)cc1`, for which the concentration giving a half-maximal response (EC50) amounted to 30 nM in [4] and 6000 nM in [3].

Turning to `C[C@@H](Cc1ccc(O)cc1)NC[C@H](O)COc1ccc(O)cc1`, the IC50 came to 81 nM in test [5] and 84 nM in test [2]. In addition, the EC50 in test [3] came to 25 nM.

For `O=S(=O)(Nc1ccc(CCNC[C@H](O)COc2ccc(O)cc2)cc1)c1ccccc1`, the half-inhibitory concentration (IC50) is 180 nM in test [5] and 190 nM in [2]. For the same compound, the EC50 in test [3] was 6.3 nM.

For the compound `CCCS(=O)(=O)Nc1ccc(CCNC[C@H](O)COc2ccc(O)cc2)cc1`, the 50% inhibitory concentration (IC50) came out at 1000 nM in test [5] and 500 nM in test [2]. The same compound yielded a Max stimulation in [9] of 4%. For the same compound, a half-maximal effect in test [3] (EC50) was put at 60 nM.

For `COc1ccc(CCCNC[C@H](O)COc2ccc(O)cc2)cc1`, the half-maximal inhibitory concentration (IC50) in test [6] is 15 nM; in test [2], 63 nM. Further, a half-maximal effect in test [3] (EC50) was put at 600 nM.

With `COc1ccc(CC[C@H](C)NC[C@H](O)COc2ccc(O)cc2)cc1`, the IC50 in test [10] was determined as 10 nM; in [2], 20 nM. For the same compound, in test [3], the EC50 was found to be 200 nM.

As for `O=S(=O)(Nc1ccc(CCNC[C@H](O)COc2ccc(O)cc2)cc1)C1CCCCC1`, the IC50 in test [5] stood at 2000 nM; in [2], 3000 nM. Besides, the EC50 in [6] stood at 1200 nM; in test [3] it was 1500 nM.

Consider `CC(C)S(=O)(=O)Nc1ccc(CCNC[C@H](O)COc2ccc(O)cc2)cc1`, for which the results for the IC50 in [5] and in test [2] were 100 nM and 58 nM, respectively. This compound also yielded a concentration giving a half-maximal response (EC50) in test [3] of 25 nM.
